Experiments:
Type in all cases: cell-based
[1] = target: T1, M2 (Homo sapiens, UniProt P08172); assay: In vitro functional assay of muscarinic acetylcholine receptor activity, M2; conditions: antagonist activity; M2 method not separately described
T1 sequence (P08172 1-466): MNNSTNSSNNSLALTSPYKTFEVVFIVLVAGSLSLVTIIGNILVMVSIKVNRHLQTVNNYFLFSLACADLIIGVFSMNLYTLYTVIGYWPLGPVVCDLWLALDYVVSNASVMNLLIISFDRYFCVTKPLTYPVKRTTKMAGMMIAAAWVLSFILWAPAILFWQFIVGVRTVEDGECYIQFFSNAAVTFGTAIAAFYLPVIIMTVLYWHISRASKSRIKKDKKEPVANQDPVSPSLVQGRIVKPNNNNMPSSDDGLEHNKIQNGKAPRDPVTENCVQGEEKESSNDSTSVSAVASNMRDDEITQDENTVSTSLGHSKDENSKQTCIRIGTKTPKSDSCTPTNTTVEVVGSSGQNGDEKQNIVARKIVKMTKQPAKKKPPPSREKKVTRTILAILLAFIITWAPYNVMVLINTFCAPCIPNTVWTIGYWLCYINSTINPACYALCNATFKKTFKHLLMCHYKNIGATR
Protocol: [The procedure below names another target; the source lists this target under the same test.] (§1) CHO-K1 cells stably expressing human M1 receptor with Aequorin (Perkin Elmer) were grown in F12 media, 10% FBS with 0.4 mg/mL geneticin and […]. Cells were grown to confluence and frozen down to be assayed at a later date. On the day of the experiment cells were thawed in a 37° C. water bath, resuspended in DMEM/HAM's F12 with HEPES (Invitrogen)+0.1% protease-free BSA (assay buffer), and spun down to remove freezing media. After centrifugation, supernatant was removed and 12 mL of assay buffer was added. Coelenterazine h (Promega) was added to the cells at a final concentration of 5 uM and incubated for 4 hours at room temperature in the dark. Compound master plate-96 deep well (Corning) were formatted in a 8-point DRC in assay buffer with 0.2% DMSO at a starting concentration of 60 uM (2×). After 4 hours of incubation, cells were plated at a concentration of 5×10^5 cells/well in 96 well white-walled, tissue culture-treated, clear-bottom plates (VWR). Compounds were added to the daughter plate, and cells plus compound were incubated at room temperature for 30 minutes in the dark.
(§2) Calcium flux was measured using the FlexStation 3 (Molecular Devices). To measure the antagonist dose-response, the EC80 of Acetylcholine was injected to the daughter plate using the automated compound transfer function of the Flex Station, and the increase in luminescence was measured over time. Antagonist activity was analyzed as a concentration dependent decrease in the EC80 acetylcholine response. Dose response curves were generated using Prism (GraphPad Software). The IC50 of the compounds was calculated from the dose response curve.

[2] = target: T2, human M1 receptor (Homo sapiens, UniProt P11229); assay: In vitro functional assay of muscarinic acetylcholine receptor activity (aequorin calcium flux, antagonist mode vs EC80 acetylcholine), M1; conditions: CHO-K1 cells stably expressing human M1 receptor with Aequorin; decrease in EC80 acetylcholine response
T2 construct: host or cells: CHO-K1
T2 sequence (P11229 1-460): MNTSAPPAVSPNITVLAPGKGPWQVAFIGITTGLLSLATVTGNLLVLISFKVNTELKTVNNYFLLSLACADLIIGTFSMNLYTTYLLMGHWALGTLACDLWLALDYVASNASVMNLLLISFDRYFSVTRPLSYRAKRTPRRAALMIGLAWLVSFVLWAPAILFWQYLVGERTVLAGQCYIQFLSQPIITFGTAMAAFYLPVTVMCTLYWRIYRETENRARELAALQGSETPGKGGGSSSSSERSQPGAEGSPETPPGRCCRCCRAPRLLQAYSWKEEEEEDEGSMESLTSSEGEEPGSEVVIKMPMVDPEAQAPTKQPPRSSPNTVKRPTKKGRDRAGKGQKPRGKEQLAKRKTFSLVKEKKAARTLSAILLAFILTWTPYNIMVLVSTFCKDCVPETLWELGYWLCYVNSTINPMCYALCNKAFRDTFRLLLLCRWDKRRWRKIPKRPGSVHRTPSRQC
Protocol: as §1, §2

[3] = target: M3 (Homo sapiens, UniProt P20309); assay: In vitro functional assay of muscarinic acetylcholine receptor activity, M3; conditions: antagonist activity; M3 method not separately described
Sequence of M3 (P20309 whole entry): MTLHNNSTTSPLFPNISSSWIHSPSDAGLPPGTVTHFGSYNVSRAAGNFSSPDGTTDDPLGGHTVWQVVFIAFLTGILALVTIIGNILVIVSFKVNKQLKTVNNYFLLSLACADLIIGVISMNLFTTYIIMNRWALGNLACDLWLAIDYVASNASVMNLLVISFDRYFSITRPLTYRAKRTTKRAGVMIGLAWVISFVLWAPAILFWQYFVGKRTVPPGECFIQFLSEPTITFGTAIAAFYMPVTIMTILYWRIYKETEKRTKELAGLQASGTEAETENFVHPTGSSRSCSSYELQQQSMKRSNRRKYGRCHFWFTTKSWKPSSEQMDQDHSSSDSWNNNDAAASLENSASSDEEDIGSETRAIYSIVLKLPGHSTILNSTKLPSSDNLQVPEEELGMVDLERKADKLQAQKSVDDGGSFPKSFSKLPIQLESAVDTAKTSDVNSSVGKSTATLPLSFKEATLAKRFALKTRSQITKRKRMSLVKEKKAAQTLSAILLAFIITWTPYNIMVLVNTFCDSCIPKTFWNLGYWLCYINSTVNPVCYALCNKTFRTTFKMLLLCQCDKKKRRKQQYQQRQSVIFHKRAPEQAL
Protocol: [The procedure below names another target; the source lists this target under the same test.] as §1, §2

IC50 [1] [nM]	IC50 [2] [nM]	IC50 [3] [nM]	Compound
> 10000	100 to 1000	1000 to 10000	N#Cc1ccc(N2CCN3C(=O)[C@@H](CCCc4cccn5ccnc45)C[C@H]3C2)nc1 [Example 15]
100 to 1000	100 to 1000	100 to 1000	N#Cc1ccc(N2CCN3C(=O)[C@@H](CCCc4cccc5nncn45)C[C@H]3C2)nc1 [Example 16, 6-((7S,8aS)-7-(3-([1,2,4]triazolo[4,3-a]pyridin-5-yl)propyl)-6-oxohexahydropyrrolo[1,2-a]pyrazin-2(1H)-yl)nicotinonitrile]
1000 to 10000	< 100	1000 to 10000	N#Cc1ccc(N2CCN3C(=O)[C@@H](CCCc4cccc5nnnn45)C[C@H]3C2)nc1 [Example 17, 6-((7S,8aS)-6-oxo-7-(3-(tetrazolo[1,5-a]pyridin-5-yl)propyl)hexahydropyrrolo[1,2-a]pyrazin-2(1H)-yl)nicotinonitrile]
1000 to 10000	1000 to 10000	> 10000	N#Cc1ccc(N2CCN3C(=O)[C@@H](CCCc4cccc5c4CCC5)C[C@H]3C2)nc1 [Example 18, 6-((7S,8aS)-7-(3-(2,3-dihydro-1H-inden-4-yl)propyl)-6-oxohexahydropyrrolo[1,2-a]pyrazin-2(1H)-yl)nicotinonitrile]
100 to 1000	< 100	1000 to 10000	N#Cc1ccc(N2CCN3C(=O)[C@@H](CCCc4cccc5c4CCO5)C[C@H]3C2)nc1 [Example 19, 6-((7S,8aS)-7-(3-(2,3-dihydrobenzofuran-4-yl)propyl)-6-oxohexahydropyrrolo[1,2-a]pyrazin-2(1H)-yl)nicotinonitrile]
1000 to 10000	100 to 1000	1000 to 10000	N#Cc1ccc(N2CCN3C(=O)[C@@H](CCCc4ccc5c(c4)CCO5)C[C@H]3C2)nc1 [Example 20, 6-((7S,8aS)-7-(3-(2,3-dihydrobenzofuran-5-yl)propyl)-6-oxohexahydropyrrolo[1,2-a]pyrazin-2(1H)-yl)nicotinonitrile]
1000 to 10000	< 100	1000 to 10000	Cc1nc2cccc(CCC[C@H]3C[C@H]4CN(c5ccc(C#N)cn5)CCN4C3=O)c2o1 [Example 21, 6-((7S,8aS)-7-(3-(2-methylbenzo[d]oxazol-7-yl)propyl)-6-oxohexahydropyrrolo[1,2-a]pyrazin-2(1H)-yl)nicotinonitrile]
100 to 1000	< 100	1000 to 10000	N#Cc1ccc(N2CCN3C(=O)[C@@H](CCCc4cccc5ncoc45)C[C@H]3C2)nc1 [Example 22, 6-((7S,8aS)-7-(3-(benzo[d]oxazol-7-yl)propyl)-6-oxohexahydropyrrolo[1,2-a]pyrazin-2(1H)-yl)nicotinonitrile]
1000 to 10000	< 100	100 to 1000	N#Cc1ccc(N2CCN3C(=O)[C@@H](CCCc4cccc(F)c4C4CC4)C[C@H]3C2)nc1 [Example 25, 6-((7S,8aS)-7-(3-(2-cyclopropyl-3-fluorophenyl)propyl)-6-oxohexahydropyrrolo[1,2-a]pyrazin-2(1H)-yl)nicotinonitrile]
> 10000	100 to 1000	1000 to 10000	O=C1[C@@H](CCCc2cccc3ncsc23)C[C@H]2CN(c3cccnc3)CCN12 [Example 26, (7S,8aS)-7-(3-(benzo[d]thiazol-7-yl)propyl)-2-(pyridin-3-yl)hexahydropyrrolo[1,2-a]pyrazin-6(2H)-one]
> 10000	100 to 1000	1000 to 10000	O=C1[C@@H](CCCc2cccc3ncsc23)C[C@H]2CN(c3ccccn3)CCN12 [Example 27, (7S,8aS)-7-(3-(benzo[d]thiazol-7-yl)propyl)-2-(pyridin-2-yl)hexahydropyrrolo[1,2-a]pyrazin-6(2H)-one]
100 to 1000	< 100	100 to 1000	O=C1[C@@H](CCCc2cccc3ncsc23)C[C@H]2CN(c3ccncc3)CCN12 [Example 28, (7S,8aS)-7-(3-(benzo[d]thiazol-7-yl)propyl)-2-(pyridin-4-yl)hexahydropyrrolo[1,2-a]pyrazin-6(2H)-one]
1000 to 10000	< 100	1000 to 10000	Nc1cc(N2CCN3C(=O)[C@@H](CCCc4cccc5ncsc45)C[C@H]3C2)ccn1 [Example 30, (7S,8aS)-2-(2-aminopyridin-4-yl)-7-(3-(benzo[d]thiazol-7-yl)propyl)hexahydropyrrolo[1,2-a]pyrazin-6(2H)-one]
> 10000	1000 to 10000	> 10000	O=C1[C@@H](CCCc2cccc3ncnn23)C[C@H]2CN(c3cccc(C(F)(F)F)n3)CCN12 [Example 31, (7S,8aS)-7-(3-([1,2,4]triazolo[1,5-a]pyridin-5-yl)propyl)-2-(6-(trifluoromethyl)pyridin-2-yl)hexahydropyrrolo[1,2-a]pyrazin-6(2H)-one]
100 to 1000	< 100	1000 to 10000	O=C1[C@@H](CCCc2cccc3ncnn23)C[C@H]2CN(c3ccc(C(F)(F)F)cn3)CCN12 [Example 32, (7S,8aS)-7-(3-([1,2,4]triazolo[1,5-a]pyridin-5-yl)propyl)-2-(5-(trifluoromethyl)pyridin-2-yl)hexahydropyrrolo[1,2-a]pyrazin-6(2H)-one]
1000 to 10000	100 to 1000	1000 to 10000	O=C1[C@@H](CCCc2cccc3ncnn23)C[C@H]2CN(c3ccnc(C(F)(F)F)c3)CCN12 [Example 33, (7S,8aS)-7-(3-([1,2,4]triazolo[1,5-a]pyridin-5-yl)propyl)-2-(2-(trifluoromethyl)pyridin-4-yl)hexahydropyrrolo[1,2-a]pyrazin-6(2H)-one]
1000 to 10000	< 100	1000 to 10000	O=C1[C@@H](CCCc2cccc3ncnn23)C[C@H]2CN(c3ccc(Cl)cn3)CCN12 [Example 34, (7S,8aS)-7-(3-([1,2,4]triazolo[1,5-a]pyridin-5-yl)propyl)-2-(5-chloropyridin-2-yl)hexahydropyrrolo[1,2-a]pyrazin-6(2H)-one]
> 10000	< 100	> 10000	O=C1[C@@H](CCCc2cccc3ncnn23)C[C@H]2CN(c3ncc(F)cn3)CCN12 [Example 35, (7S,8aS)-7-(3-([1,2,4]triazolo[1,5-a]pyridin-5-yl)propyl)-2-(5-fluoropyrimidin-2-yl)hexahydropyrrolo[1,2-a]pyrazin-6(2H)-one]
1000 to 10000	< 100	1000 to 10000	COc1cc(N2CCN3C(=O)[C@@H](CCCc4cccc5ncnn45)C[C@H]3C2)ccn1 [Example 37, (7S,8aS)-2-(2-methoxypyridin-4-yl)-7-(3-{[1,2,4]triazolo[1,5-a]pyridin-5-yl}propyl)-octahydropyrrolo[1,2-a]pyrazin-6-one]
> 10000	1000 to 10000	> 10000	COc1ccc(N2CCN3C(=O)[C@@H](CCCc4cccc5ncnn45)C[C@H]3C2)cn1 [Example 38, (7S,8aS)-7-(3-([1,2,4]triazolo[1,5-a]pyridin-5-yl)propyl)-2-(6-methoxypyridin-3-yl)hexahydropyrrolo[1,2-a]pyrazin-6(2H)-one]
> 10000	100 to 1000	1000 to 10000	O=C1[C@@H](CCCc2cccc3ncnn23)C[C@H]2CN(c3ccc(OC(F)F)cn3)CCN12 [Example 39, (7S,8aS)-7-(3-([1,2,4]triazolo[1,5-a]pyridin-5-yl)propyl)-2-(5-(difluoromethoxy)pyridin-2-yl)hexahydropyrrolo[1,2-a]pyrazin-6(2H)-one]
